{"source": "patent US20090042987A1", "about": "“TREATMENT OF NEUROPATHIC PAIN” (priority 2007, published 2009)", "system": "STZ-diabetic rats", "test": "von Frey paw withdrawal thresholds, STZ-diabetic rats given multiple dosing regimens (washout protocol), Example 1", "type": "in vivo, rat", "description": "Experimental Animals Ethical approval for this study was obtained from the Animal Experimentation Ethics Committee of The University of Queensland. Adult male Sprague-Dawley (SD) rats (222±4 g) were used for this study. Rats were housed in a temperature controlled room (21+2.0 C) with a 12/12 hour light/dark cycle. Food and water were available ad libitum. Initiation of drug administration occurred at 8-11 weeks post-STZ administration for rats in Experiment 1 (PCT-001) and at 10-12 weeks post-STZ administration for rats in Experiment 2 (PCT-007).\nTest Article Tranilast was supplied by the Sponsor and stored at −4° C. until use. Gabapentin (100 mg/kg, dissolved in water for injection) was utilized as the positive control for this study.\nTest Article and Vehicle Preparation Test article formulations were prepared freshly on the day of administration by weighing the appropriate amount of bulk powder and suspending it in the required volume of vehicle. Carboxymethyl cellulose ((CMC) 0.5% in water for injection) was utilized as the vehicle for this study.\nTest Article Administration. […] The maximum oral gavage volume administered in this study was […]. 4.4\nSTZ-Diabetic Rat Model of Painful Diabetic Neuropathy. Painful diabetic neuropathy is a common long-term complication of diabetes in humans that develops as a result of a sustained biochemical nerve injury. […] Following the induction of diabetes with intravenous STZ at 70-80 mg/kg, it generally takes 6-8 wks for tactile allodynia, the defining symptom of PDN, to fully develop in both rat hindpaws.\nInduction of STZ-Diabetes in Rats. On day 0, rats were anaesthetized with 3% isoflurane:97% O2 and a short polyethylene cannula (0.5 mm ID, 0.8 mm OD) was inserted into the jugular vein to facilitate the intravenous (i.v.) administration of a single dose of streptozotocin (STZ: 70-80 mg/kg). After STZ injection, the cannula was removed and the jugular vein was tied off and the wound was closed. Rats received subcutaneous benzylpenicillin (60 mg) prior to surgery to prevent infection and were kept warm during surgical recovery. Rats were housed singly prior to further experimentation and were monitored daily from the time of STZ administration with regard to general health and well-being.\nVon Frey Assessment of Paw Withdrawal Thresholds. Calibrated von Frey filaments were used to determine the lowest mechanical threshold required to evoke a brisk paw withdrawal reflex in the rat hindpaws. Briefly, rats were transferred individually to wire mesh testing cages (20 cm×20 cm×20 cm) and allowed to acclimatize for approximately 10-20 min prior to von Frey testing. Commencing with the von Frey filament that produced the 6 g force, the filament was applied to the plantar surface of the hindpaw until the filament buckled slightly. Absence of a response after 3 s prompted use of the next filament of increasing weight. A withdrawal response within 3 s prompted use of the next filament of decreasing weight. Filaments used produced buckling weights of 2, 4, 6, 8, 10, 12, 14, 16, 18 and 20 g. […] Tactile allodynia is regarded as being fully developed when von Frey PWTs in the injured hindpaws are <6 g.\nRestoring von-Frey PWTs in the hindpaws from <6 g to pre-STZ surgery levels (12±2 g) is the treatment goal representing full reversal of tactile allodynia. If drug treatment increases PWTs above pre-surgical baseline values (i.e. >12±2 g), such a response is classified as antinociception. Before administration of STZ, baseline von Frey measurements were assessed. Following STZ administration, baseline PWTs were assessed in the hindpaws at week 8-11 to confirm the development of diabetes-induced tactile allodynia. […]"}
{"smiles": "COc1ccc(/C=C/C(=O)Nc2ccccc2C(=O)O)cc1OC", "note": "[Tranilast, 2-[[3-(3,4-dimethoxyphenyl)-1-oxo-2-propenyl]amino]benzoic acid]", "values": [{"measurement": "Mean (±SEM) PWT at the mean time of peak response", "setting": "tranilast 300 mg/kg oral, 7th twice-daily dose, 1.5 h post-dosing", "result": "9.8 (±1.1) g"}, {"measurement": "Time of peak anti-allodynia post-dosing", "setting": "tranilast 300 mg/kg oral, 7th twice-daily dose, multiple dosing regimens", "result": "1 to 1.5", "unit": "h"}, {"measurement": "Mean (±SEM) PWT pre-dose", "setting": "tranilast 300 mg/kg oral, 7th twice-daily dose, pre-dose", "result": "5.1 (±0.4) g"}, {"measurement": "Anti-allodynia in the hindpaws", "setting": "tranilast 30, 100, 200, 300 mg/kg oral, 7 consecutive twice-daily doses, multiple dosing regimens", "result": "significant anti-allodynia was produced only by the 300 mg/kg dosing regimen"}, {"measurement": "Relief of tactile allodynia, dose dependence", "setting": "tranilast 100-300 mg/kg oral, 7 consecutive twice-daily doses, up to 5 dosing regimens, 2-3 day washout", "result": "dose-dependent relief of tactile allodynia"}]}
